Results taken from paper PMC9241644, “Evaluation of Novel Quorum Sensing Inhibitors Targeting Auto-Inducer 2 (AI-2) for the Control of Avian Pathogenic Escherichia coli Infections in Chickens” (Microbiology Spectrum, 2022).

Experiments:
[1] = QSI-5 and SDM residue quantification in muscle, kidney and liver (LC-MS); type: in vivo, chickens; settings: in vivo
Procedure: The safety of QSI-5 and SDM was assessed by measuring the level of drug residue in the muscle, kidney, and liver using LC-MS (CCIC, MS&P Facility, OSU) as described before ([34]). As described above, chickens were administered with the optimized dose of QSI-5 (1 mg/L) and the therapeutic dose of SDM (495.323 mg/L) (0.05%) in drinking water daily for 7 days (starting from day 5 to day 11 of age). Tissue samples were collected individually from chickens treated with QSI-5 and SDM (five chickens per group) from experimental set up as described for floor trial at 2 DPLT, 5 DPLT, and […] (slaughter age). All samples were weighed and extracted at a 400 mg/mL ratio of tissue in the extraction solution (50:50 H2O: ACN). Samples were homogenized using a probe sonicator 20 times and centrifuged at 13,000 × g for 30 min. Sixty μL of the supernatant was transferred into glass vials and dried in a SpeedVac for 1.5 h, and then resuspended in 120 μL of 25:25:50 H2O:ACN:MeOH. Standard calibration, LC system, mass spectrometer, and drug target monitoring were performed as described above. Calibration standard curves for measuring the accumulation of QSI-5 and SDM in the kidney, liver, and muscle are shown in Fig. S6A and S6B.

Rif^R APEC O78 [2] = experiment: Comparative efficacy of QSI-5 and SDM in field simulated conditions (built-up floor litter); type: in vivo, Escherichia coli
From the text: (§1) Chickens were monitored for clinical signs for 8 DPI. Any chickens moribund during this period were humanely euthanized and necropsied to determine bacterial load in the internal organs (liver, heart, lung, and kidney). Internal organs were aseptically collected, weighed and suspended in 1× PBS, the amount of PBS added was adjusted based on the organ size to make a suspension, the organ size and amount of PBS added were included in the final calculation of the CFU. The samples were homogenized, serially diluted 10-fold, plated on MacConkey agar (Remel, CA, USA) containing 50 μg/mL rifampicin, and incubated at 37°C for 24 h to determine the CFU/g. Pathological lesions severity in internal organs (pericarditis, perihepatitis, airsacculitis, and lung congestion) was scored as described previously ([21], [59]). At 8 DPI, the remaining chickens were humanely euthanized and necropsied, lesions were scored, and the APEC load was quantified in internal organs as described above.
To compare the efficacy of QSI-5 with an antibiotic SDM currently used in the field, chickens (n = 70) were raised on built-up floor litter in a field-simulated conditions. One-day-old broiler chickens (Case Farms Ohio Hatchery, OH, USA) were used for conducting the experiment. The optimized dose of QSI-5 (1 mg/L) and the therapeutic dose of SDM (495.323 mg/L) (0.05%) were given in drinking water daily for 7 days (starting from day 5 to day 11 of age). The volume of drinking water needed daily was determined as described above. On day 6, the chickens were infected s/c with Rif^r APEC O78 (5 × 10^6 CFU/chicken, s/c). PC (0.05% DMSO treated and infected) and NC (non-infected and non-treated) control groups were included. The mortality was recorded daily until the end of the experiment (42 days of age: slaughter age). At 8 DPI, half of the chickens from each group were necropsied, lesions were scored, and the APEC load was quantified in the internal organs as described above. The other half of the chickens were raised until day 42 to determine the impact of treatment on the body weight gain and feed intake. To calculate the FCR, body weight was measured once every week and feed intake was recorded every day. On day 42, the remaining chickens were euthanized, body weight was measured and 10 chickens from each group were randomly selected and necropsied, lesions and APEC load were assessed in the internal organs.

Rif^R APEC O78 [3] = experiment: Efficacy of QSIs in APEC-infected chickens (oral gavage pilot); type: in vivo, Escherichia coli; settings: for Average lesion severity, Lung / Average lesion severity, Liver / Average lesion severity, Airsac / Average lesion severity, Heart / Mortality rate % (Nr.) / Average APEC load, Liver / Average APEC load, Heart / Average APEC load, Kidney / Average APEC load, Lung: Table S1, oral gavage pilot; for Average lesion severity, Lung / Average lesion severity, Liver / Average lesion severity, Airsac / Average lesion severity, Heart: lesion score; for Average lesion severity, Lung: PC 1.25; for Average lesion severity, Liver: PC 1.75; for Average lesion severity, Airsac: PC 2.00; for Average lesion severity, Heart: PC 2.25; for Mortality rate % (Nr.): n = 6/group, 8 DPI, PC 66.6 (4/6); for Average APEC load, Liver: PC 5.95; for Average APEC load, Heart: PC 5.98; for Average APEC load, Kidney: PC 6.81; for Average APEC load, Lung: PC 6.83; for reduction in mortality compared with the PC group / average APEC load reduction in the internal organs (liver, heart, lung, kidney) compared with PC: chickens, QSI oral gavage once daily 5 days, s/c APEC O78 1 × 10^7 CFU/bird; for reduction in mortality compared with the PC group: PC mortality normalized to 100%; for average APEC load reduction in the internal organs (liver, heart, lung, kidney) compared with PC: range over organs
Procedure: The chicken experiment was carried out using 1-day-old broiler chickens (Mayer Hatchery, OH, USA). Feed and water were given ad libitum. Chickens (n = 6/group) were administered with the QSIs (QSI-1, QSI-2, QSI-5 − 8, QSI-10, ChemBridge, San Diego, CA); previously designated as C1, C2, C5, C6, C7, C8, C10 ([17]) using oral gavage. These compounds were selected based on their high efficacy in in vitro studies and the doses correspond to 30X of the initial in vitro screening concentration ([17]). The QSIs were suspended in dimethyl sulfoxide (DMSO; used as a vehicle) and administered once daily for 5 successive days (starting from day 4 to day 8). The first dose was administered 1 day before the challenge, followed by the second dose on the challenge day (2 h before challenge), followed by three additional doses on subsequent days. Feeders were removed 1 h prior to the treatment and replaced 1 h after the treatment. Chickens were challenged subcutaneously (s/c) on day 5 with Rif^R APEC O78 (1 × 10^7 CFU/bird) in PBS using syringe (27 gauge, 0.5 in.). The challenge dose, which […], was chosen based on preliminary experiments conducted with different infection routes (subcutaneous s/c, intra-tracheal and intra-airsacs) and different doses (10^6, 10^7, and 10^8 CFU/chicken). […] Therefore, we selected this challenge dose and route for evaluation of QSIs in chickens ([34]). The positive (PC; infected with APEC O78 and DMSO treated) and negative (NC; non-infected and non-treated) control groups were included.
as §1

## COc1cc(NS(=O)(=O)c2ccc(N)cc2)nc(OC)n1 [SDM, sulfadimethoxine]
[1]; broiler, chicken, 35 DPLT
  Drug accumulation, Liver (ppm± SD): 0.0 ± 0.0 ppm
  Drug accumulation, Muscle (ppm± SD): 0.0 ± 0.0 ppm
[1]; commercial broiler, chicken, 35 DPLT
  Drug accumulation, Kidney (ppm± SD): 0.0 ± 0.0 ppm
[1]
  residue in any tissues: no detectable residues
Rif^R APEC O78 [2]; Table S3, PC 1.85
  Average lesion severity, Lung: 1.17
Rif^R APEC O78 [2]; Table S3, PC 2.52
  Average lesion severity, Liver: 2.03
Rif^R APEC O78 [2]; Table S3, PC 3.36
  Average lesion severity, Airsac: 2.50
Rif^R APEC O78 [2]; Table S3, PC 3.58
  Average lesion severity, Heart: 2.83
Rif^R APEC O78 [2]; Table S3, PC 7.24
  Average APEC load, Liver: 5.05 Log CFU/ g of tissue
Rif^R APEC O78 [2]; Table S3, PC 7.68
  Average APEC load, Lung: 6.17 Log CFU/ g of tissue
Rif^R APEC O78 [2]; Table S3, PC 7.73
  Average APEC load, Kidney: 5.33 Log CFU/ g of tissue
Rif^R APEC O78 [2]; Table S3, PC 7.92
  Average APEC load, Heart: 5.69 Log CFU/ g of tissue
Rif^R APEC O78 [2]; Table S3, until 42 days of age, QSI-5 (8/63), SDM (19/65), PC 45.6 (31/68)
  Mortality rate % (Nr.): 29.2%
Rif^R APEC O78 [2]; built-up floor litter, QSI-5 1 mg/L, SDM 495.3 mg/L (0.05%) in drinking water 7 days, s/c APEC O78 5 × 10^6 CFU/chicken
  reduction in mortality compared with the PC group: 35.9%

## Cc1ccccc1N1CCN(C2CCCN(C(=O)c3ccc(F)c(Cl)c3)C2)CC1 (stereo not drawn) [QSI-2]
Rif^R APEC O78 [3]
  Average lesion severity, Lung: 0.17
  Average lesion severity, Liver: 1.00
  Average lesion severity, Airsac: 0.92
  Average lesion severity, Heart: 1.67
  Mortality rate % (Nr.): 33.3%
  Average APEC load, Liver: 4.20 Log CFU/g of tissue
  Average APEC load, Heart: 4.87 Log CFU/g of tissue
  Average APEC load, Kidney: 5.07 Log CFU/g of tissue
  Average APEC load, Lung: 5.15 Log CFU/g of tissue
  reduction in mortality compared with the PC group: 50%

## O=[N+]([O-])c1cccc(S(=O)(=O)Nc2ccc(Br)cc2)c1 [QSI-6]
Rif^R APEC O78 [3]
  Average lesion severity, Lung: 0.50
  Average lesion severity, Liver: 0.83
  Average lesion severity, Airsac: 1.17
  Average lesion severity, Heart: 1.50
  Mortality rate % (Nr.): 66.6%
  Average APEC load, Liver: 4.62 Log CFU/g of tissue
  Average APEC load, Heart: 4.87 Log CFU/g of tissue
  Average APEC load, Kidney: 5.35 Log CFU/g of tissue
  Average APEC load, Lung: 5.17 Log CFU/g of tissue
  reduction in mortality compared with the PC group: did not reduce mortality

## OCCC1CN(C2CCN(c3ccccc3)CC2)CCN1CCCc1ccccc1 (stereo not drawn) [QSI-10]
Rif^R APEC O78 [3]
  Average lesion severity, Lung: 0.00
  Average lesion severity, Liver: 0.00
  Average lesion severity, Airsac: 0.17
  Average lesion severity, Heart: 0.33
  Mortality rate % (Nr.): 16.6%
  Average APEC load, Liver: 2.50 Log CFU/g of tissue
  Average APEC load, Heart: 2.50 Log CFU/g of tissue
  Average APEC load, Kidney: 2.47 Log CFU/g of tissue
  Average APEC load, Lung: 3.08 Log CFU/g of tissue

## CCc1ccccc1NC1NC(c2c(C)nc3ccccn23)=CS1 (stereo not drawn) [QSI-8]
Rif^R APEC O78 [3]
  Average lesion severity, Lung: 0.17
  Average lesion severity, Liver: 0.50
  Average lesion severity, Airsac: 0.50
  Average lesion severity, Heart: 0.50
  Mortality rate % (Nr.): 33.3%
  Average APEC load, Liver: 3.48 Log CFU/g of tissue
  Average APEC load, Heart: 3.60 Log CFU/g of tissue
  Average APEC load, Kidney: 3.65 Log CFU/g of tissue
  Average APEC load, Lung: 4.60 Log CFU/g of tissue
  reduction in mortality compared with the PC group: 50%

## COCCN1CCC(CN(Cc2cccnc2)Cc2ccccc2Cl)CC1 [QSI-1]
Rif^R APEC O78 [3]
  Average lesion severity, Lung: 0.50
  Average lesion severity, Liver: 2.17
  Average lesion severity, Airsac: 1.83
  Average lesion severity, Heart: 3.00
  Mortality rate % (Nr.): 50%
  Average APEC load, Liver: 5.30 Log CFU/g of tissue
  Average APEC load, Heart: 5.63 Log CFU/g of tissue
  Average APEC load, Kidney: 6.28 Log CFU/g of tissue
  Average APEC load, Lung: 5.92 Log CFU/g of tissue
  reduction in mortality compared with the PC group: 25%
  average APEC load reduction in the internal organs (liver, heart, lung, kidney) compared with PC: did not reduce the APEC load

## O=C(CCN1CCN(c2ccccc2F)CC1)Nc1ccc(Br)cc1 [QSI-7]
Rif^R APEC O78 [3]
  Average lesion severity, Lung: 0.17
  Average lesion severity, Liver: 1.33
  Average lesion severity, Airsac: 1.00
  Average lesion severity, Heart: 1.33
  Mortality rate % (Nr.): 66.6%
  Average APEC load, Liver: 5.95 Log CFU/g of tissue
  Average APEC load, Heart: 6.13 Log CFU/g of tissue
  Average APEC load, Kidney: 6.13 Log CFU/g of tissue
  Average APEC load, Lung: 6.10 Log CFU/g of tissue
  reduction in mortality compared with the PC group: did not reduce mortality
  average APEC load reduction in the internal organs (liver, heart, lung, kidney) compared with PC: did not reduce the APEC load
